Here are results for 15 molecules from patent publication US9169241B2, “Quinolinyloxyphenylsulfonamides” (Max-Planck-Gesellschaft Zur Forderung der Wissenschaften …, priority 2009, dated 2015).

Each structure is given as a SMILES string.

For series [1], the system named is Hs578T. Nature of the series: Cell vitality assay (ATP assay, CellTiter-Glo). The note with it: Homo sapiens, Hs-578T; HS578T cell line, 72 h; Table Ib; read-out: IC50 ATP-Assay HS578T after 72 h. In kind it is cell-based. How it is done: The CellTiter-Glo® Luminescent Cell Viability Assay (Promega Corporation. Madison, Wis., USA) is method a determining the number of viable cells in culture based on quantification of the ATP being present which is an indicator of metabolically active cells was used according to manufacturers protocol, In detail the assay was performed in a 96 well format were 1000 cells/well were incubated with indicated compound at concentration of 12.5 μM, 6.25 μM, 3.125 μM, 1.56 μM, 0.78 μM, 0.39 μM, 0.195 μM as well as DMSO control for 72 h in 100 μl cell culture medium. IC50 values were calculated as 50% of ATP amount compared to DMSO control.
Protocol for the CellTiter-Glo® Luminescent Cell Viability Assay • 1. Prepare opaque-walled multiwell plates with mammalian cells in culture medium, 100 μl per well for 96-well plates • 2. Prepare control wells containing medium without cells to obtain a value for background luminescence. • 3. Add the compound to be tested to experimental wells, and incubate according to culture protocol. • 4. Equilibrate the plate and its contents at room temperature for approximately 30 minutes. • 5. Add a volume of CellTiter-Glo® Reagent (Promega Corporation. Madison, Wis.) equal to the volume of cell culture medium present in each well. • 6. Mix contents for 2 minutes on an orbital shaker to induce cell lysis. • 7. Allow the plate to incubate at room temperature for 10 minutes to stabilize luminescent signal. • 8. Record luminescence on Microplate Luminometer LB96V (Berthold Tchnologies, Bad Wildbad, Germany). An integration time of 0.1 and 1 second per well

The subject of series [2] is Hs578T. Nature of the series: Matrigel outgrowth assay/branching assay. In kind it is cell-based. The note with it: Homo sapiens, Hs-578T; HS578T cell line; Table Ib; read-out: Total branching inhibition in Matrigel HS578T. How it is done:
The Matrigel outgrowth assay is based on the ability of tumor cell to penetrate a solid gel of extracellular matrix proteins mimicking the metastasis formation in vivo. While cells with low invasive potential appear as roundish cell or cell cluster, cells with high invasive potential penetrate the Matrigel and form polymorphic structures. In detail 65 μl of Matrigel matrix (Matrigel™ Matrix, BD Biosciences, Bedford, Mass., USA) with a concentration of 3 mg/ml have been polymerized in 96 well plates for 1 h at 37° C. Subsequently 5000 cell/well were seeded into each well containing cell culture medium and indicated compound with concentrations of 3.125 μM, 1.56 μM and 0.78 μM as well as DMSO control. After 48 h, 72 h and 96 h images of cell were taken on an inverted microscope using a 5× objective (Zeiss Axiovert S100 microscope Carl Zeiss UK, Welwyn Garden City, UK). Only compound concentrations were total branching inhibition was evident were accounted as positive. Method was used as previously described, with some modifications (Thompson E W, et al. Association of increased basement membrane invasiveness with absence of estrogen receptor and expression of vimentin in human breast cancer cell lines. J Cell Physiol 1992; 150:534-44).

Series [3] deals with Hs578T. Nature of the series: Wound healing migration assay. The series is classed as cell-based. As to conditions: Homo sapiens, Hs-578T; HS578T cell line; Table Ib. How it is done: This method mimics cell migration during wound healing in vivo. The basic steps involve creating a “wound” in a cell monolayer, capturing the images at the beginning and at regular intervals during cell migration to close the wound, and comparing the images to quantify the migration rate of the cells. In detail, 150000 cell/24 well have been seeded and allowed to form a monolayer overnight. Subsequently a “wound” or “scratch” has been performed with a 1000 μl pipette tip. The STDV of wound size is normally below 10% at time point t0. The assay was stopped by fixation with 0.05% Crystal violet/20% methanol when control scratches were closed. The assay was terminated between 48 h and 72 h depending on the migration potential of the indicated cell line. The “wounds” were visualized with a Zeiss Axiovert S100 microscope (Carl Zeiss UK, Welwyn Garden City, UK). The tested compounds were used at 12.5 μM, 6.25, 3.125 μM and DMSO control. IC50 values have been calculated as 50% wound size in between t0 and t48 or t72.

Molecule `COc1cc2c(Oc3ccc(NS(=O)(=O)c4ccn(C)n4)cc3F)ccnc2cc1OCCCN1CCCCC1` [Example 163, 1-Methyl-1H-pyrazole-3-sulfonic acid {3-fluoro-4-[6-methoxy-7-(3-piperidin-1-yl-propoxy)-quinolin-4-yloxy]-phenyl}-amide] returned a melting point of 167 to 168 °C. The IC50 in the series with Hs578T [1] is no more than 12.5 µM. Further, the IC50 with Hs578T [2] was 10 to 25 µM. In the series on Hs578T [3], this molecule had an IC50 of 12.5 to 50 µM.

As to `COc1cc2c(Oc3ccc(NS(=O)(=O)c4ccn(C)n4)cc3F)ccnc2cc1OCCCN1CCC(C)CC1` [Example 164, 1-Methyl-1H-pyrazole-3-sulfonic acid (3-fluoro-4-{6-methoxy-7-[3-(4-methyl-piperidin-1-yl)-propoxy]-quinolin-4-yloxy}-phenyl)-amide], the melting point was 165 to 166 °C. The IC50 in the series on Hs578T [1] is no more than 12.5 µM. The IC50 in the series on Hs578T [2] was 10 to 25 µM. For the same molecule, in the series with Hs578T [3], the IC50 lay in the range of 12.5 to 50 µM.

As for `COc1cc2c(Oc3ccc(NS(=O)(=O)c4ccn(C)n4)cc3F)ccnc2cc1OCCCN1CCOCC1` [Example 165, 1-Methyl-1H-pyrazole-3-sulfonic acid {3-fluoro-4-[6-methoxy-7-(3-morpholin-4-yl-propoxy)-quinolin-4-yloxy]-phenyl}-amide], the melting point fell in the range of 198 to 199 °C. Further, in the series on Hs578T [1], the IC50 was no more than 12.5 µM. Further, the IC50 with Hs578T [2] was 10 to 25 µM. The molecule further had an IC50 in the series on Hs578T [3] of 12.5 to 50 µM.

For the molecule `COc1cc2c(Oc3ccc(NS(=O)(=O)c4ccn(C)n4)cc3F)ccnc2cc1OCCCN1CCN(C)CC1` [Example 166, 1-Methyl-1H-pyrazole-3-sulfonic acid (3-fluoro-4-{6-methoxy-7-[3-(4-methyl-piperazin-1-yl)-propoxy]-quinolin-4-yloxy}-phenyl)-amide], the melting point fell in the range of 157 to 159 °C. The IC50 with Hs578T [1] was no more than 12.5 µM. Moreover, in the series with Hs578T [2], the IC50 was in the range of 10 to 25 µM. Further, the IC50 in the series with Hs578T [3] was in the range of 12.5 to 50 µM.

The molecule `COc1cc2c(Oc3ccc(NS(=O)(=O)c4cnc(C)[nH]4)cc3F)ccnc2cc1OCCCN1CCCCC1` [Example 167, 2-Methyl-3H-imidazole-4-sulfonic acid {3-fluoro-4-[6-methoxy-7-(3-piperidin-1-yl-propoxy)-quinolin-4-yloxy]-phenyl}-amide] yielded a melting point of 160 to 163 °C. Further, the IC50 in the series on Hs578T [1] lay within 12.5 to 50 µM. Further, the IC50 with Hs578T [2] lay in the range of 10 to 25 µM. This molecule also registered an IC50 in the series with Hs578T [3] of 12.5 to 50 µM.

The molecule `COc1cc2c(Oc3ccc(NS(=O)(=O)c4cnc(C)[nH]4)cc3F)ccnc2cc1OCCCN1CCC(C)CC1` [Example 168, 2-Methyl-3H-imidazole-4-sulfonic acid (3-fluoro-4-{6-methoxy-7-[3-(4-methyl-piperidin-1-yl)-propoxy]-quinolin-4-yloxy}-phenyl)-amide] gave a melting point of 225 to 226 °C. For the same molecule, the IC50 in the series on Hs578T [1] was 12.5 to 50 µM. Also, the IC50 in the series with Hs578T [2] lay within 10 to 25 µM. Further, in the series on Hs578T [3], the IC50 lay in the range of 12.5 to 50 µM.

Molecule `COc1cc2c(Oc3ccc(NS(=O)(=O)c4cnc(C)[nH]4)cc3F)ccnc2cc1OCCCN1CCN(C)CC1` [Example 170, 2-Methyl-3H-imidazole-4-sulfonic acid (3-fluoro-4-{6-methoxy-7-[3-(4-methyl-piperazin-1-yl)-propoxy]-quinolin-4-yloxy}-phenyl)-amide] displayed a melting point of 215 to 217 °C. Also, the IC50 in the series with Hs578T [1] lay in the range of 12.5 to 50 µM. The IC50 in the series with Hs578T [2] lay within 10 to 25 µM. Also, the IC50 with Hs578T [3] is 12.5 to 50 µM.

In the case of `COc1cc2c(Oc3ccc(NS(=O)(=O)c4sc(NC(C)=O)nc4C)cc3F)ccnc2cc1OCCCN(C)C` [Example 183, N-(5-{4-[7-(3-Dimethylamino-propoxy)-6-methoxy-quinolin-4-yloxy]-3-fluoro-phenylsulfamoyl}-4-methyl-thiazol-2-yl)-acetamide], the melting point fell in the range of 164 to 166 °C. Also, in the series on Hs578T [1], the IC50 was in the range of 12.5 to 50 µM. In the series on Hs578T [2], the IC50 fell in the range of 10 to 25 µM. Moreover, the IC50 in the series with Hs578T [3] fell in the range of 12.5 to 50 µM.

With `COc1cc2c(Oc3cc(NS(=O)(=O)c4c(F)cccc4F)ccc3F)ccnc2cc1OCCCN1CCC(C)CC1` [Example 188, 2,6-Difluoro-N-(4-fluoro-3-{6-methoxy-7-[3-(4-methyl-piperidin-1-yl)-propoxy]-quinolin-4-yloxy}-phenyl)-benzenesulfonamide], the melting point fell in the range of 185 to 186 °C. The IC50 in the series with Hs578T [1] was no more than 12.5 µM. Further, in the series with Hs578T [2], the IC50 was no more than 10 µM. The molecule further registered an IC50 with Hs578T [3] of no more than 12.5 µM.

The molecule `COc1cc2c(Oc3cc(NS(=O)(=O)c4ccccc4C(F)(F)F)ccc3F)ccnc2cc1OCCCN1CCC(C)CC1` [Example 189, N-(4-Fluoro-3-{6-methoxy-7-[3-(4-methyl-piperidin-1-yl)-propoxy]-quinolin-4-yloxy}-phenyl)-2-trifluoromethyl-benzenesulfonamide] came in with a melting point of 175 to 177 °C. The IC50 in the series with Hs578T [1] lay in the range of 12.5 to 50 µM. Also, the IC50 in the series on Hs578T [2] fell in the range of 10 to 25 µM. Also, the IC50 with Hs578T [3] was 12.5 to 50 µM.

With `COc1cc2c(Oc3cc(NS(=O)(=O)c4ccccc4OC(F)(F)F)ccc3F)ccnc2cc1OCCCN1CCC(C)CC1` [Example 190, N-(4-Fluoro-3-{6-methoxy-7-[3-(4-methyl-piperidin-1-yl)-propoxy]-quinolin-4-yloxy}-phenyl)-2-trifluoromethoxy-benzenesulfonamide], the melting point lay within 80 to 82 °C. In addition, the IC50 in the series on Hs578T [1] was 12.5 to 50 µM. Moreover, in the series with Hs578T [2], the IC50 was 10 to 25 µM. For the same molecule, the IC50 in the series on Hs578T [3] was 12.5 to 50 µM.

Molecule `COc1cc2c(Oc3cc(NS(=O)(=O)c4c(Cl)cccc4Cl)ccc3F)ccnc2cc1OCCCN1CCC(C)CC1` [Example 192, 2,6-Dichloro-N-(4-fluoro-3-{6-methoxy-7-[3-(4-methyl-piperidin-1-yl)-propoxy]-quinolin-4-yloxy}-phenyl)-benzenesulfonamide] came in with a melting point of 116 to 118 °C. Also, in the series with Hs578T [1], the IC50 was no more than 12.5 µM. Further, in the series on Hs578T [2], the IC50 fell in the range of 10 to 25 µM. In the series on Hs578T [3], this molecule registered an IC50 of 12.5 to 50 µM.

For `COc1cc2c(Oc3ccc(Cl)c(NS(=O)(=O)c4ccccc4C(F)(F)F)c3)ccnc2cc1OCCCN1CCC(C)CC1` [Example 195, N-(2-Chloro-5-{6-methoxy-7-[3-(4-methyl-piperidin-1-yl)-propoxy]-quinolin-4-yloxy}-phenyl)-2-trifluoromethyl-benzenesulfonamide], the melting point was 179 to 181 °C. For the same molecule, the IC50 with Hs578T [1] was in the range of 12.5 to 50 µM. Moreover, the IC50 in the series on Hs578T [2] was in the range of 10 to 25 µM. The same molecule returned an IC50 in the series with Hs578T [3] of 12.5 to 50 µM.

Consider `COc1cc2c(Oc3ccc(Cl)c(NS(=O)(=O)c4ccccc4OC(F)(F)F)c3)ccnc2cc1OCCCN1CCC(C)CC1` [Example 196, N-(2-Chloro-5-{6-methoxy-7-[3-(4-methyl-piperidin-1-yl)-propoxy]-quinolin-4-yloxy}-phenyl)-2-trifluoromethoxy-benzenesulfonamide], for which the melting point was in the range of 123 to 126 °C. Moreover, the IC50 in the series with Hs578T [1] fell in the range of 12.5 to 50 µM. For the same molecule, the IC50 in the series with Hs578T [2] lay within 10 to 25 µM. The IC50 with Hs578T [3] was in the range of 12.5 to 50 µM.

On to `COc1ccc2nccc(Oc3ccc(NS(=O)(=O)c4c(F)cccc4F)cc3F)c2c1` [Example 200, 2,6-Difluoro-N-[3-fluoro-4-(6-methoxy-quinolin-4-yloxy)-phenyl]-benzenesulfonamide], for which the melting point fell in the range of 227 to 228 °C. For the same molecule, in the series on Hs578T [1], the IC50 lay within 12.5 to 50 µM. Besides, in the series with Hs578T [2], the IC50 lay within 10 to 25 µM. In addition, in the series with Hs578T [3], the IC50 was 12.5 to 50 µM.
